These results are taken from EP4667464A1 (Cyrus Therapeutics Inc., priority 2023, dated 2024).

Test [1] concerns lung cancer cell line H358 having the KRAS G12S variant. The experiment in a line: SynergyScreen combination efficacy (ATPlite 1Step cell viability). Conditions: for Synergy 2: difference between Synergy 1 and cell death rate of Ex. 1-2 alone.
Experimental: In order to measure cell viability, each well was treated with 24 µL of ATPlite 1Step™ (PerkinElmer) solution, then mixed for 2 minutes, and reacted by blocking light for 5 minutes, and then the luminescence signal was measured using an Envision multilabel reader (PerkinElmer).
Test [2] has as its target T1, KRAS G12C::SOS1 (Homo sapiens, UniProt Q07889).
T1 construct: purchased CISBIO 64KRASG12PEH
T1 sequence (Q07889 1-1333): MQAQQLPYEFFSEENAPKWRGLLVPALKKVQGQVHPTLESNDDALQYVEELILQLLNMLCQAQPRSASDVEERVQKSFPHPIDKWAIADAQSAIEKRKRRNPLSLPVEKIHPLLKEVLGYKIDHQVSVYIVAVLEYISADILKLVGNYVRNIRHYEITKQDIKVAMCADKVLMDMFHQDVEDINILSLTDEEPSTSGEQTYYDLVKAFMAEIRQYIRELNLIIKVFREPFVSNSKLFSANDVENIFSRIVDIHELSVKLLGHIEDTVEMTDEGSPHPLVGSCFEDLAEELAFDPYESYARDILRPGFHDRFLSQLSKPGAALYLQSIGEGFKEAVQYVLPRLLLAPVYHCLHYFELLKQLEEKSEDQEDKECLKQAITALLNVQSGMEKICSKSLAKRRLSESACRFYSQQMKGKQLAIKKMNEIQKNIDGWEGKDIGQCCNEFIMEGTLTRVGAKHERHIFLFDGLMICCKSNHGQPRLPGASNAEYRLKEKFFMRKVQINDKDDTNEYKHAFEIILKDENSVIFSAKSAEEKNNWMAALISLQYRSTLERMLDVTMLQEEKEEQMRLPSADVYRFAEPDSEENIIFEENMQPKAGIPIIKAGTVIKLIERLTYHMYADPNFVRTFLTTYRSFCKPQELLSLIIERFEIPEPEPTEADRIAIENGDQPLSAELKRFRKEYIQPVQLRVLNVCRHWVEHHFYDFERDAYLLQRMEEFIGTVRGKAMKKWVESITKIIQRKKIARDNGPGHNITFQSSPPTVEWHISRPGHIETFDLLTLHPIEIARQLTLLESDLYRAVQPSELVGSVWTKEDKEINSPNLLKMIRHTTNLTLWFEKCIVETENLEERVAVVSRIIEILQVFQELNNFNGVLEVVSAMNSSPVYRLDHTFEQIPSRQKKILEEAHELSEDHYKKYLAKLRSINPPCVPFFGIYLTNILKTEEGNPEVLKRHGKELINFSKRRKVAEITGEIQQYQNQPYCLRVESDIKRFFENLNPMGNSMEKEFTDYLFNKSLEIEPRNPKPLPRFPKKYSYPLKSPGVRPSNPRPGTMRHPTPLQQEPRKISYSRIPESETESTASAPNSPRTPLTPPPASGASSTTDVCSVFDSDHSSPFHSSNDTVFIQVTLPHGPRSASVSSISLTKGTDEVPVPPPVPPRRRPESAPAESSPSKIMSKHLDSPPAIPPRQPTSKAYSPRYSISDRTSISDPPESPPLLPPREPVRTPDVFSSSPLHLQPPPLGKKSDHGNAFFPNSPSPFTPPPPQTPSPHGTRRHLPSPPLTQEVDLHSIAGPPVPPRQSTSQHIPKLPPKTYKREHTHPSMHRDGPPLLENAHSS
The experiment in a line: KRAS G12C::SOS1 protein-protein interaction (PPI) inhibition assay (HTRF). Type of test: binding. A digest of the protocol: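 Compounds, at eight 3-fold dilutions from 3 µM, were mixed with GTP-loaded Tag1-KRAS G12C, Tag2-SOS1 and a terbium-cryptate donor plus XL665 acceptor antibody pair. After 2 h at room temperature, time-resolved FRET reported the KRAS–SOS1 interaction.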
For orientation: TR-FRET usually uses a lanthanide donor and a delayed reading to cut background.

Test [3] relates to lung cancer cell line NCI-H358 having the KRAS G12C variant. The experiment in a line: Cancer cell growth inhibition, 3D spheroids (CellTiter-Glo 3D). The test is classed as cell-based. The note with it: Homo sapiens, NCI-H358, 120 h, read-out: H358 cell viability. Summed up:
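NCI-H358 (KRAS G12C) spheroids lysed with CellTiter-Glo 3D for 30 min with shaking after 10 min at room temperature. Growth in compound-treated wells expressed relative to untreated wells set to 100%.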

For test [4], the target named is T2, SOS1 (Homo sapiens, UniProt Q07889).
T2 construct: HIS-SOS1cat (160 nM; Cytoskeleton, US); His (N); purchased Cytoskeleton
T2 sequence (Q07889 564-1049 limits assumed): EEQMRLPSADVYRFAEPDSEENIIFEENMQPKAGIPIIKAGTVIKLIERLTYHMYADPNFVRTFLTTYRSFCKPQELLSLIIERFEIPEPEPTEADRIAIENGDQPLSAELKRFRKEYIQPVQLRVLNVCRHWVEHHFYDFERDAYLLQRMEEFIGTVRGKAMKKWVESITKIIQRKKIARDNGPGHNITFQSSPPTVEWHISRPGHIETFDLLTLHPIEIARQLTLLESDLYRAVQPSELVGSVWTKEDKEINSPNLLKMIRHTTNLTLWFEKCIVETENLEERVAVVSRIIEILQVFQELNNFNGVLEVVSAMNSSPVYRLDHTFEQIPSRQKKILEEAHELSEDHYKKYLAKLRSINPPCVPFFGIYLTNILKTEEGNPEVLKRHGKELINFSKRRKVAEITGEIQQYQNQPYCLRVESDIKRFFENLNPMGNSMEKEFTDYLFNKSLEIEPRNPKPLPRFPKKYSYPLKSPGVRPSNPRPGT
Kind of test: SOS-catalyzed nucleotide exchange assay (HTRF, SOS1-mediated GTP loading of KRAS G12D). The test is classed as biochemical.

Where [5] appears, read: 8 concentrations from 3 µM, three replicates, read-out: KRAS G12C::SOS1 PPI.
Where [6] appears, read: 3D spheroids, 0.002-10 µM, 5 days.
The mark [7] stands for this setting: GST-KRAS G12D, HIS-SOS1cat, compound 128 pM to 10 µM, read-out: SOS-catalyzed nucleotide exchange assay.

Like-named read-outs stand apart in the source and are kept apart here.

Take `C[C@]12C=CC(=O)C=C1CC[C@@H]1[C@@H]2[C@@H](O)C[C@@]2(C)[C@H]1CC[C@]2(O)C(=O)CO` [prednisolone]: in test [1] (words printed in place of a concentration, culture time 72 h, with Ex. 1-2 log M -5.9), the “Concentration (log M) Anticancer agent” value is on record as “No Concentration -dependent change”.
Turning to `C[C@@H](NC(=O)c1ccc(=O)n(-c2cncc(-c3cnnn3C)c2)n1)c1cccc(C(F)(F)F)c1F` [Example 1-2, N-[(1R)-1-[2-fluoro-3-(trifluoromethyl)phenyl]ethyl]-1-[5-(3-methyltriazol-4-yl)-3-pyridyl]-6-oxo-pyridazine-3-carboxamide], the IC50 was 50 to 150 nM in test [2] (setting [5]), under 1000 nM in test [3] (setting [6]) and 50 to 150 nM in test [4] (setting [7]). For the same compound, the “EFFECT20 (concentration that induces 20% cell death), applied as final treatment concentration” value came out at 1854 nM in test [1] (culture time 72 h) and 652 nM in test [1] (culture time 120 h).
For the compound `O=c1cc(-c2ccc(O)c(O)c2O)oc2ccccc12` [Example 2-D08, 2-D08], the “Synergy 2” value in test [1] (Ex. 1-2 log M -6.3, culture time 120 h) is recorded as “+ (less than 10%)”.
Consider `C[C@@H](NC(=O)c1ccc(=O)n(-c2cc(-c3cnnn3C3CC3)cnc2F)c1)c1cccc(C(F)(F)F)c1F` [Example 1-67, (R)-5'-(1-cyclopropyl-1H-1,2,3-triazol-5-yl)-2'-fluoro-N-(1-(2-fluoro-3-(trifluoromethyl)phenyl)ethyl)-2-oxo-2H-[1,3'-bipyridine]-5-carboxamide], for which the IC50 was 50 to 150 nM in test [2] (setting [5]), under 1000 nM in test [3] (setting [6]) and under 50 nM in test [4] (setting [7]).
Take `C[C@@H](NC(=O)c1ccc(=O)n(-c2cnnc(-c3cnnn3C)c2)n1)c1cccc(C(F)(F)F)c1F` [Example 4, N-[(1R)-1-[2-fluoro-3-(trifluoromethyl)phenyl]ethyl]-1-[6-(3-methyltriazol-4-yl)pyridazin-4-yl]-6-oxo-pyridazine-3-carboxamide]: the figures for the IC50 in test [2], in test [3] and in test [4] were over 150 nM, over 3000 nM and over 150 nM, respectively.
In the case of `C[C@@H](NC(=O)c1ccc(=O)n(-c2cncc(-c3cnnn3C)c2)n1)c1cccc(C(F)(F)CO)c1F` [Example 1, N-[(1R)-1-[3-(1,1-difluoro-2-hydroxy-ethyl)-2-fluoro-phenyl]ethyl]-1-[5-(3-methyltriazol-4-yl)-3-pyridyl]-6-oxo-pyridazine-3-carboxamide], the IC50 in test [2] is under 50 nM; in test [3], under 1000 nM; in test [4], under 50 nM.
For `[2H]C([2H])([2H])n1nncc1-c1cncc(-n2nc(C(=O)N[C@H](C)c3cccc(C(F)F)c3F)ccc2=O)c1` [Example 1-6, N-[(1R)-1-[3-(difluoromethyl)-2-fluoro-phenyl]ethyl]-6-oxo-1-[5-[3-(trideuteriomethyl)triazol-4-yl]-3-pyridyl]pyridazine-3-carboxamide], the IC50 in test [2] (setting [5]) was under 50 nM; in test [3] (setting [6]), over 3000 nM; in test [4] (setting [7]) it was 50 to 150 nM.
Taken in the same sequence, the figures for `Cc1c([C@@H](C)NC(=O)c2ccc(=O)n(-c3cncc(-c4ccnn4C)c3)n2)cc(N)cc1C(F)(F)F` [Example 2-4, N-[(1R)-1-[5-amino-2-methyl-3-(trifluoromethyl)phenyl]ethyl]-1-[5-(2-methylpyrazol-3-yl)-3-pyridyl]-6-oxo-pyridazine-3-carboxamide] were under 50 nM, under 1000 nM and under 50 nM.
On to `Cc1cc(C(=O)N[C@H](C)c2cccc(C(F)(F)CO)c2F)nn(-c2cncc(-c3cnnn3C)c2)c1=O` [Example 1-23, N-[(1R)-1-[3-(1,1-difluoro-2-hydroxy-ethyl)-2-fluoro-phenyl]ethyl]-5-methyl-1-[5-(3-methyltriazol-4-yl)-3-pyridyl]-6-oxo-pyridazine-3-carboxamide], for which the IC50 in test [2] (setting [5]) was under 50 nM; in test [3] (setting [6]), under 1000 nM; in test [4] (setting [7]) it was under 50 nM.
`C[C@@H](NC(=O)c1cc(C2CC2)c(=O)n(-c2cncc(-c3cnnn3C)c2)n1)c1cccc(C(F)(F)F)c1F` [Example 7-4, N-{(R)-1-[2-fluoro-3-(trifluoromethyl)phenyl]ethyl}-5-cyclopropyl-1-[5-(1-methyl-1H-1,2,3-triazol-5-yl)-3-pyridyl]-6-oxo-1,6-dihydropyridazine-3-carboxamide]: the values for the IC50 in test [2] (setting [5]), in test [3] (setting [6]) and in test [4] (setting [7]) were under 50 nM, under 1000 nM and under 50 nM, respectively.
Regarding `C[C@@H](NC(=O)c1ccc(=O)n(-c2cnnc(-c3ccnn3C)c2)n1)c1cccc(C(F)(F)CO)c1F` [Example 1-20, N-[(1R)-1-[3-(1,1-difluoro-2-hydroxy-ethyl)-2-fluoro-phenyl]ethyl]-1-[6-(2-methylpyrazol-3-yl)pyridazin-4-yl]-6-oxo-pyridazine-3-carboxamide], the IC50 was over 150 nM in test [2] (setting [5]), over 3000 nM in test [3] (setting [6]) and 50 to 150 nM in test [4] (setting [7]).
In the case of `C[C@@H](NC(=O)c1cc(-c2ccccc2)c(=O)n(-c2cncc(-c3cnnn3C)c2)n1)c1cccc(C(F)(F)F)c1F` [Example 1-63, N-{(R)-1-[2-fluoro-3-(trifluoromethyl)phenyl]ethyl}-1-[5-(1-methyl-1H-1,2,3-triazol-5-yl)-3-pyridyl]-6-oxo-5-phenyl-1,6-dihydropyridazine-3-carboxamide], the IC50 in test [2] (setting [5]) was 50 to 150 nM; in test [3] (setting [6]), under 1000 nM; in test [4] (setting [7]), 50 to 150 nM.
Turning to `CNC(=O)c1cc(Oc2ccc(NC(=O)Nc3ccc(Cl)c(C(F)(F)F)c3)cc2)ccn1` [Sorafenib, sorafenib], the “Synergy 2” value in test [1] (Ex. 1-2 log M -5.9, culture time 72 h) is given as “+ (less than 10%)”.
